The values that follow are results of earlier work, collected in patent publication US20020177624A1, “Acetate-lactate buffering vaginal gel and for method of making same and treating bacterial vaginosis” (priority 2001, published 2002).

The data set relates to bacterial vaginosis. The settings on record: oral administration.

`Cc1ncc([N+](=O)[O-])n1CCO` [metronidazole]: the “success of treatment of bacterial vaginosis” value is recorded as “often highly successful”.
